According to patent US10654884B2 (Vitae Pharmaceuticals, Inc., priority 2014, dated 2020):

Molecular target: T1, human CD73 (Homo sapiens, UniProt P21589)
T1 construct: purchased R&D Systems 5795-EN-010
T1 sequence (P21589 27-549): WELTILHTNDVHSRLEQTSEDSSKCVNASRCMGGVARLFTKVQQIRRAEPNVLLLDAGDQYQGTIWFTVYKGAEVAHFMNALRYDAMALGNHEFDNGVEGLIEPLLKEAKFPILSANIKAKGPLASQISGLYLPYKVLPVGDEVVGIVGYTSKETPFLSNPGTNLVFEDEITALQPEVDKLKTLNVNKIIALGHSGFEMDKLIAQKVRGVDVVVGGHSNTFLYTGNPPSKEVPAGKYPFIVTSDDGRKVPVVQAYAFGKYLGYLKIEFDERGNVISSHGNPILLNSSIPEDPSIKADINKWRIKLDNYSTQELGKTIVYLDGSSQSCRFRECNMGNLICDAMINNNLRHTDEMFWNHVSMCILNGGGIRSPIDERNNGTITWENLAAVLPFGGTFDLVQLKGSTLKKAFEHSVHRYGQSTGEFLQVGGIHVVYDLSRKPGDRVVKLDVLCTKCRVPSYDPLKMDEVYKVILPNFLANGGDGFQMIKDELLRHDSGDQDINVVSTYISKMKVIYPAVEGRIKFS
Assay: Inhibition of 5′-Nucleotidase Activity of CD73 (Assay 1)
Type: biochemical
Conditions: human CD73 4 ng/ml, 50 μM CMP, 20 min at RT, malachite green readout; read-out: Assay 1: IC50, inhibition of 5′-nucleotidase activity of CD73
Experimental: Inhibition of 5′-Nucleotidase Activity of CD73 (Assay 1)
Compounds of the present invention were tested for the ability to inhibit CD73 enzyme activity. Tested compounds were dissolved in DMSO (50× final concentration), and 3.2 μL of the solutions added to 96-well polystyrene plates. To these wells were added, 100 μL of human CD73 (R&D Systems Cat. No. 5795-EN-010) and 57 μL of cytidine-5′-monophosphate (CMP) solutions in assay buffer (25 mM Tris-HCl, pH 7.4, 0.005% Brij-35) were added to achieve final concentrations in the assay of 4 ng/ml CD73 and 50 μM of CMP. The assay mixture was incubated for 20 min at RT. The reaction was stopped by addition of 40 μL of malachite green reagent which was prepared by mixing together 10 ml 2M H2SO4, 2.5 ml of 15% ammonium molybdate and 0.2 ml of 11% Tween-20. The mixture was agitated vigorously for 10 min at RT, and absorbance at 620 nm was determined on a microplate spectrophotometer. […] The IC50 values were derived using a non-linear 4 parameter logistic model (XLFit software, IDBS) and correspond to the inflection points on dose-response curves.

SMILES | IC50 [nM]
CS(=O)(=O)C(OC[C@H]1O[C@@H](n2cnc3c(N)nc(Cl)nc32)[C@H](O)[C@@H]1O)P(=O)(O)O (single isomer, unassigned) [Example 10a] | > 1000
CCCS(=O)(=O)[C@@H](OC[C@H]1O[C@@H](n2cnc3c(N)nc(Cl)nc32)[C@H](O)[C@@H]1O)P(=O)(O)O (single isomer, unassigned) [Example 12a] | > 1000
CC(C)CS(=O)(=O)[C@@H](OC[C@H]1O[C@@H](n2cnc3c(N)nc(Cl)nc32)[C@H](O)[C@@H]1O)P(=O)(O)O (single isomer, unassigned) [Example 13a] | > 1000
CCOC(=O)[C@@H](OC[C@H]1O[C@@H](n2ccc(=O)n(C)c2=O)[C@H](O)[C@@H]1O)P(=O)(O)O (single isomer, unassigned) [Example 30a] | > 1000
CCOC(=O)[C@@H](OC[C@@H]1O[C@H](n2cnc3c(N)nc(C)nc32)[C@@H](O)[C@H]1O)P(=O)(O)O (single isomer, unassigned) [Example 37a] | > 1000
CCOC(=O)[C@@H](OC[C@H]1O[C@@H](n2cnc3c(N)nc(-c4ccccc4)nc32)[C@H](O)[C@@H]1O)P(=O)(O)O (single isomer, unassigned) [Example 40a] | < 100
CCOC(=O)[C@@H](OC[C@H]1O[C@@H](n2cnc3c(N)nc(-c4cc(F)cc(F)c4)nc32)[C@H](O)[C@@H]1O)P(=O)(O)O (single isomer, unassigned) [Example 41a] | > 1000
CCOC(=O)[C@@H](OC[C@H]1O[C@@H](n2cnc3c(N)nc(C(F)(F)F)nc32)[C@H](O)[C@@H]1O)P(=O)(O)O (single isomer, unassigned) [Example 42a] | > 1000
CCOC(=O)[C@@H](OC[C@H]1O[C@@H](n2cnc3c(N)nc(CC(C)C)nc32)[C@H](O)[C@@H]1O)P(=O)(O)O (single isomer, unassigned) [Example 46a] | > 1000
CCOC(=O)[C@@H](OC[C@H]1O[C@@H](n2cnc3c(N)nc(C4CC4)nc32)[C@H](O)[C@@H]1O)P(=O)(O)O (single isomer, unassigned) [Example 50a] | > 1000
CCOC(=O)[C@@H](OC[C@H]1O[C@@H](n2cnc3c(N)nc(C4NCCO4)nc32)[C@H](O)[C@@H]1O)P(=O)(O)O (single isomer, unassigned) [Example 51b] | > 1000
CC(C)(C)OC(=O)[C@H](OC[C@H]1O[C@@H](n2cnc3c(N)nc(CN)nc32)[C@H](O)[C@@H]1O)P(=O)(O)O (single isomer, unassigned) [Example 55] | > 1000
CC(C)(C)OC(=O)[C@@H](OC[C@H]1O[C@@H](n2cnc3c(N)nc(CN)nc32)[C@H](O)[C@@H]1O)P(=O)(O)O (single isomer, unassigned) [Example 55a] | > 1000
Nc1ncnc2c1ncn2[C@@H]1O[C@H](CO[C@@H](CO)P(=O)(O)O)[C@@H](O)[C@H]1O (single isomer, unassigned) [Example 57] | > 1000
Nc1ncnc2c1ncn2[C@@H]1O[C@H](CO[C@H](CO)P(=O)(O)O)[C@@H](O)[C@H]1O (single isomer, unassigned) [Example 57a] | > 1000
Cn1c(=O)ccn([C@@H]2O[C@H](CO[C@@H](C(=O)O)P(=O)(O)O)[C@@H](O)[C@H]2O)c1=O (single isomer, unassigned) [Example 60] | > 1000
Cn1c(=O)ccn([C@@H]2O[C@H](CO[C@H](C(=O)O)P(=O)(O)O)[C@@H](O)[C@H]2O)c1=O (single isomer, unassigned) [Example 60a] | > 1000
Nc1nc(Cl)nc2c1ncn2[C@@H]1O[C@H](COC(C(=O)O)P(=O)(O)O)[C@@H](O)[C@H]1O (single isomer, unassigned) [Example 61a] | < 100
CCOC(=O)[C@@H](OC[C@H]1C[C@@H](n2cnc3cccc(Cl)c3c2=O)[C@H](O)[C@@H]1O)P(=O)(O)O (single isomer, unassigned) [Example 70a] | > 1000
